Test results from DBAASP.
Converted amounts (≈) assume the structure as drawn.

Assays:
Test in all cases: ≥ marks a high value that may be exact or a test limit, other limits are often not marked, values filed in µg/mL are converted to µM
[1] = tested on: Salmonella enterica subsp. enterica serovar Choleraesuis CVCC 503
[2] = tested on: Staphylococcus aureus ATCC 43300
[3] = tested on: Staphylococcus epidermidis ATCC 12228
[4] = tested on: Lacticaseibacillus rhamnosus 1.0911
[5] = tested on: Salmonella enterica subsp. enterica serovar Typhimurium ATCC 14028
[6] = tested on: Pseudomonas aeruginosa ATCC 27853
[7] = tested on: Salmonella enterica subsp. enterica serovar Pullorum C79-13
[8] = tested on: Pseudomonas aeruginosa PAO1
Escherichia coli K88 = tested on: Escherichia coli K88
[9] = tested on: Staphylococcus aureus ATCC 29213
[10] = tested on: Lacticaseibacillus rhamnosus 8014
[11] = tested on: Lacticaseibacillus rhamnosus 1.0936
[12] = tested on: Escherichia coli O157:H7 CICC 21530
[13] = tested on: Streptococcus agalactiae BNCC 185941
[14] = tested on: Lacticaseibacillus rhamnosus 1.9021
[15] = tested on: Mycobacterium tuberculosis CAS3
[16] = tested on: Mycobacterium tuberculosis H37Rv
[17] = tested on: Mycobacterium tuberculosis WXY
[18] = tested on: Staphylococcus epidermidis C621
[19] = tested on: Salmonella enterica serovar typhimurium MS7953s
[20] = tested on: Pseudomonas aeruginosa Z61
[21] = tested on: Pseudomonas aeruginosa K799
[22] = tested on: Staphylococcus aureus C623
Escherichia coli UB1005 = tested on: Escherichia coli UB1005
[23] = tested on: Escherichia coli CGSC 4908
[24] = tested on: Salmonella enterica subsp. enterica serovar Typhimurium ATCC 14028s
Candida albicans C627 = tested on: Candida albicans C627
[25] = tested on: Aeromonas salmonicida 97-4
[26] = tested on: Aeromonas salmonicida 99-1
Escherichia coli DC2 = tested on: Escherichia coli DC2
[27] = tested on: Klebsiella pneumoniae KpC+001825971
Acinetobacter baumannii = tested on: Acinetobacter baumannii
[28] = tested on: Staphylococcus aureus ATCC 12600
[29] = tested on: Pseudomonas aeruginosa PA14
[30] = tested on: Escherichia coli ATCC 25922
[31] = tested on: Escherichia coli KpC+001812446
[32] = tested on: Staphylococcus aureus ATCC 25923
Staphylococcus aureus = tested on: Staphylococcus aureus
[33] = tested on: Escherichia coli ATCC 8739
Enterobacter cloacae = tested on: Enterobacter cloacae
[34] = tested on: Klebsiella pneumoniae ATCC 13883

CC(C)C[C@H](NC(=O)[C@H](CCCCN)NC(=O)CNC(=O)[C@H](CCCCN)NC(=O)[C@H](CC(C)C)NC(=O)[C@H](Cc1c[nH]c2ccccc12)NC(=O)[C@H](CC(C)C)NC(=O)[C@H](CCCCN)NC(=O)CNC(=O)[C@H](CCCCN)NC(=O)[C@@H](N)CC(C)C)C(N)=O [LKGKLWLKGKL]
MIC [1]: ≥ 128 µM | MIC [2]: > 128 µM | MIC [3]: > 128 µM | MIC [4]: ≥ 128 µM | MIC [5]: 64 µM (≈ 82.1 µg/mL) | MIC [6]: 32 µM (≈ 41 µg/mL) | MIC [7]: 8 µM (≈ 10.3 µg/mL) | MIC [8]: 32 µM (≈ 41 µg/mL) | MIC (Escherichia coli K88): 8 µM (≈ 10.3 µg/mL) | MIC [9]: > 128 µM | MIC [10]: ≥ 128 µM | MIC [11]: ≥ 128 µM | MIC [12]: ≥ 64 µM | MIC [13]: ≥ 128 µM | MIC [14]: ≥ 128 µM

CC(C)C[C@H](NC(=O)[C@H](C)NC(=O)[C@H](C)NC(=O)[C@@H](NC(=O)[C@H](C)N)C(C)C)C(=O)N[C@@H](CC(C)C)C(=O)N[C@@H](CCCN=C(N)N)C(=O)N[C@@H](Cc1c[nH]c2ccccc12)C(=O)N[C@@H](Cc1c[nH]c2ccccc12)C(=O)N[C@@H](CO)C(=O)N[C@@H](CCCN=C(N)N)C(=O)N[C@@H](Cc1c[nH]c2ccccc12)C(=O)N[C@@H](Cc1c[nH]c2ccccc12)C(=O)N[C@@H](C)C(=O)N[C@@H](C)C(=O)O [AVAALLRWWSRWWAA]
MIC [15]: ≥ 40.7 µM | MIC [16]: ≥ 40.7 µM | MIC [17]: ≥ 40.7 µM

CC(=O)[C@H](C)NC(=O)[C@H](Cc1ccccc1)NC(=O)[C@H](Cc1cnc[nH]1)NC(=O)[C@H](CCCNC(=N)N)NC(=O)[C@H](CCC(N)=O)NC(=O)[C@H](CO)NC(=O)[C@H](CC(C)C)NC(=O)[C@H](CCCNC(=N)N)NC(=O)[C@H](CCC(=O)O)NC(=O)CNC(=O)[C@H](CCCCN)NC(=O)[C@@H](NC(=O)[C@H](Cc1ccccc1)NC(=O)[C@H](Cc1c[nH]c2ccccc12)NC(=O)[C@H](CCCCN)NC(=O)[C@H](CCCCN)NC(=O)[C@H](Cc1c[nH]c2ccccc12)NC(=O)CN)[C@@H](C)O [GWKKWFTKGERLSQRHFA]
MIC [18]: 28.3 µM (≈ 63.9 µg/mL) | MIC [19]: 14.1 µM (≈ 32 µg/mL) | MIC [20]: 28.3 µM (≈ 63.9 µg/mL) | MIC [21]: 28.3 µM (≈ 63.9 µg/mL) | MIC [22]: 28.3 µM (≈ 63.9 µg/mL) | MIC (Escherichia coli UB1005): 28.3 µM (≈ 63.9 µg/mL) | MIC [23]: 28.3 µM (≈ 63.9 µg/mL) | MIC [24]: 28.3 µM (≈ 63.9 µg/mL) | MIC (Candida albicans C627): 28.3 µM (≈ 63.9 µg/mL) | MIC [25]: ≥ 56.6 µM | MIC [26]: 28.3 µM (≈ 63.9 µg/mL) | MIC (Escherichia coli DC2): 28.3 µM (≈ 63.9 µg/mL)

CC[C@H](C)[C@H](NC(=O)[C@H](CCCCN)NC(=O)[C@H](CCCCN)NC(=O)CNC(=O)[C@H](CC(C)C)NC(=O)[C@H](CCCN=C(N)N)NC(=O)[C@H](CCCCN)NC(=O)[C@H](CC(C)C)NC(=O)[C@H](CC(C)C)NC(=O)[C@H](CCCCN)NC(=O)[C@H](CCSC)NC(=O)[C@@H]1CCCN1)C(=O)N[C@@H](CCCN=C(N)N)C(=O)N[C@@H](CC(C)C)C(=O)N[C@@H](C)C(=O)N[C@@H](C)C(=O)N[C@@H](C)C(=O)N[C@@H](Cc1ccccc1)C(=O)N[C@@H](CCCCN)C(=O)O [PMKLLKRLGKKIRLAAAFK]
MIC [27]: ≥ 32 µM | MIC (Acinetobacter baumannii): 4 µM (≈ 8.73 µg/mL) | MIC [28]: 4 µM (≈ 8.73 µg/mL) | MIC [29]: 4 µM (≈ 8.73 µg/mL) | MIC [30]: 4 µM (≈ 8.73 µg/mL) | MIC [31]: 2 µM (≈ 4.37 µg/mL) | MIC [32]: 16 µM (≈ 34.9 µg/mL) | MIC [8]: 4 µM (≈ 8.73 µg/mL) | MIC (Staphylococcus aureus): 16 µM (≈ 34.9 µg/mL) | MIC [33]: 14.7 µM (≈ 32 µg/mL) | MIC (Enterobacter cloacae): ≥ 32 µM | MIC [34]: 8 µM (≈ 17.5 µg/mL)
